In PubChem BioAssay (NCI):
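A five-concentration, 48-hour dose response in 96-well plates underlies each endpoint, interpolated linearly between surrounding concentrations. GI50: concentration for 50% inhibition of growth. TGI is the concentration that stops growth completely.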

Assays:
Experiment in all cases: NCI anticancer screen, dose series, 48 h
UACC-62 melanoma = test system: UACC-62 melanoma
NCI/ADR-RES ovarian = test system: NCI/ADR-RES ovarian
HT29 colon = test system: HT29 colon
NCI-H226 lung = test system: NCI-H226 lung
T-47D breast = test system: T-47D breast
NCI-H522 lung = test system: NCI-H522 lung
SK-MEL-5 melanoma = test system: SK-MEL-5 melanoma
OVCAR-3 ovarian = test system: OVCAR-3 ovarian
MALME-3M melanoma = test system: MALME-3M melanoma
A549 NSCLC = test system: A549 NSCLC

Compound | GI50 (UACC-62 melanoma) [µM] | TGI (UACC-62 melanoma) [µM] | GI50 (NCI/ADR-RES ovarian) [µM] | TGI (NCI/ADR-RES ovarian) [µM] | GI50 (HT29 colon) [µM] | TGI (HT29 colon) [µM] | GI50 (NCI-H226 lung) [µM] | TGI (NCI-H226 lung) [µM] | GI50 (T-47D breast) [µM] | TGI (T-47D breast) [µM] | GI50 (NCI-H522 lung) [µM] | TGI (NCI-H522 lung) [µM] | GI50 (SK-MEL-5 melanoma) [µM] | TGI (SK-MEL-5 melanoma) [µM] | GI50 (OVCAR-3 ovarian) [µM] | TGI (OVCAR-3 ovarian) [µM] | GI50 (MALME-3M melanoma) [µM] | TGI (MALME-3M melanoma) [µM] | GI50 (A549 NSCLC) [µM] | TGI (A549 NSCLC) [µM]
C#Cc1cccc(Nc2nc3ccc([N+](=O)[O-])cc3nc2Nc2cccc(C#C)c2)c1 | 0.302 | 1.2 | 0.284 | 1.1 | 0.229 | 0.562 | 0.251 | 1.2 | 0.259 | 0.889 | 0.209 | 0.609 | 0.181 | 0.349 | 0.193 | 0.67 | 0.235 | 0.614 | 0.212 | 1.12
C[C@H]1C(Oc2ccc(O)cc2)OC2OC3(C)CCC4[C@H](C)CCC1C24OO3 (some centres not stated) | 12.3 | 25.5 | 8.04 | 25.8 | 8.86 | 27.4 | 15.9 | 31.2 | 2.1 | 26.9 | 11 | 25.3 | 13.2 | 27.3 | 6.12 | 32.8 | 14.1 | 28.9 | 12.2 | 30.6
C=C(C)[C@@H]1CC[C@]2(COC3CCCCO3)CC[C@]3(C)[C@H](CC[C@@H]4[C@@]5(C)C=C(C=O)C(=O)C(C)(C)[C@@H]5CC[C@]43C)[C@@H]12 (some centres not stated) | 1.27 | 3.55 | 3.16 | 26.9 | 1.7 | 3.49 | 1.95 | 4.43 | 1.33 | 3.01 | 1.38 | 2.86 | 1.58 | 2.93 | 1.14 | 2.49 | 1.66 | 3.45 | 1.56 | 3.15
CN(C[C@@H]1COCCO1)S(=O)(=O)Nc1ccc2ccc3ncc(-c4cnn(C)c4)cc3c(=O)c2c1 | 3.29 | > 100 | 11.8 | > 100 | 19.7 | > 100 | 2.62 | > 100 | 5.54 | > 100 | 3.71 | > 31 | 6.42 | > 100 | 11.8 | > 100 | 5.43 | > 100 | 6.64 | > 100
CCCCCC/C=C\CCCCCCCCCC1=CC(=O)C=C(OC)C1=O |  | 16.9 |  | 19.1 |  | 11.8 |  | 11.1 |  | 4.86 |  | 4.58 |  | 5.54 |  | 17.6 |  | 29.4 |  | 16.3
CCOC(=O)c1cc2c(n1Cc1ccccc1)-c1oncc1CC2 | 3.45 | 17.2 | 2.01 | 6.3 | 3.23 | 14.4 | 10.7 | > 100 | 4.66 | 32 | 1.96 | 17.5 | 2.97 | 12 | 3.06 | 10.5 | 6.28 | 37 | 4.93 | > 100
COc1ccc(-c2csc(-c3cc(Cl)cc(Cl)c3Cl)n2)cc1 | 41.9 | > 100 | 52.2 | > 100 | 47.5 | > 100 | 78 | > 100 | 40.3 | > 100 | > 100 | > 100 | 32.2 | > 100 | 86.8 | > 100 | 81.1 | > 100 | 68.3 | > 100
O=C1CCc2c(sc3[nH]c(=S)n(Cc4ccccc4)c(=O)c23)C1 | 2.54 | 13.2 | 3.25 | > 100 | 3.84 | 27 | 4.05 | > 100 | 2.41 | 43.9 | 0.852 | 5.05 | 1.86 | 3.74 | 3.72 | > 100 | 4.53 | > 100 | 3.29 | > 100
CN(CCCl)c1ccc(/C=C/C2=[N+](C)c3ccccc3C2(C)C)cc1 | 0.482 | 7.68 | 65.8 | > 100 | 0.307 | 11.2 | 1.21 | 14.9 | 0.706 | 10.2 | 0.296 | 3.89 | 0.532 | 2.03 | 0.314 | 3.15 | 0.575 | 4.3 | 0.9 | 12.5
O=C1C(Cl)=C(Nc2cccc(O)c2)C(=O)N1c1ccccc1Cl | 19.6 | 62.3 | 56.3 | > 100 | 24.6 | 89.2 | 17 | 49.6 | 32.3 | > 100 | 17.3 | 41.8 | 18.8 | 65.6 | 21.5 | 48.5 | 10.9 | 69.1 | 50 | > 100
N#Cc1ccc(C(c2ccc(C#N)cc2)n2cncn2)cc1 | 51.5 |  | > 5000 | > 5000 | > 5000 | > 5000 | > 5000 | > 5000 | > 5000 | > 5000 |  | > 5000 | 3.33 | > 5000 | > 5000 | > 5000 | > 5000 | > 5000 | > 5000 | > 5000
CCOC(=O)Nc1ccc(-c2nc(-c3cccc(OC)c3)c(-c3ccnc(Br)c3)[nH]2)cc1 | 1.89 | 4.18 | 2.35 | 7.73 | 3.45 | > 100 | 2.21 | 7.78 | 1.96 | 6.47 | 2.73 | 9.16 | 1.83 | 3.43 | 2.82 | 8.44 | 1.98 | 5.73 | 3.07 | > 100
Cc1nc(N)sc1C(=O)Nc1cc(C(=O)NCCCN(C)C)n(C)c1 | > 100 | > 100 | > 100 | > 100 | > 100 | > 100 | > 100 | > 100 | 35.7 | > 100 | > 100 | > 100 | > 100 | > 100 | > 100 | > 100 | > 100 | > 100 | > 100 | > 100
COc1ccc(Cn2cc3c(c2-c2cc(OC)c(OC)c(OC)c2)CCc2cnoc2-3)cc1[N+](=O)[O-] | 0.404 | > 100 | 0.364 |  | 0.411 | 2.28 | 4.33 | > 100 | 3.58 | > 100 | 0.294 | 1.64 | 0.45 | > 71.6 | 0.441 | 3.09 | 0.387 | > 100 | 1 | > 100
COc1cc2nc3cc([N+](=O)[O-])ccc3c(NCCCNCC(C)(C)O)c2cc1OC | 0.214 | 0.58 | 10.5 | 25.3 | 0.212 | 0.586 | 0.771 | 2.89 | 0.237 | 0.756 | 0.181 | 0.425 | 0.52 | 1.76 | 0.33 | 1.03 | 0.315 | 0.872 | 0.32 | 1.17
COc1cccc2[nH]c(-c3ccccn3)nc12 |  | > 100 |  | 73.8 |  | > 100 |  | > 100 |  | > 100 |  | > 100 |  | > 100 |  | > 100 |  | > 100 |  | > 100
COc1ccc(C(=O)c2cc3c(N)c(C(=O)Nc4cccc(Cl)c4C)sc3nc2C)cc1 | 0.12 | > 25 | 0.086 | > 25 | 0.0863 | > 25 | 0.277 | > 25 | 0.153 | > 25 | 0.0623 | > 6.78 | 0.109 | 2.45 | 0.0872 | > 25 | 0.205 | > 25 | 0.136 | > 25
O=C(OCc1ccc2c(Cl)cc(Cl)c(O)c2n1)c1cc2ccccc2[nH]1 | 0.478 | 1.7 | 0.953 | 5.22 | 0.32 | 1.03 | 1.48 | 3.07 | 1.49 | 4.35 | 0.361 | 1.15 | 1.33 | 2.63 | 0.198 | 0.398 | 1.26 | 2.6 | 1.75 | 4.01
Nc1c(C(=O)Nc2ccccc2F)sc2nc3c(cc12)C(=O)CCC3 | 0.654 | > 100 | 0.509 | 5.09 | 0.531 | > 100 | 10.5 | > 100 | 6.79 | > 100 | 0.476 | 3.9 | 0.382 | > 100 | 0.576 | 3.9 | 1.44 | > 100 | 0.898 | > 100
